Results reported in patent US4409210A, “Antibiotic compound” (priority 1982, dated 1983).
Converted amounts (≈) assume the structure as drawn. *1 amine or outer side, *2 acyl side, *3 side chain or, on linkers, in order; H or OH if unused. Where a SMILES comes first, the peptide text is derived from it. Bridges are numbered along the chain shown (N, C = ends). [ ]: non-standard residue; d: D form. ξ: configuration not given here. X2 = CCCCCCCCCCCC(CC(=O)[*:1])O[*:2]; ξAsp(3ξ-OH) = NC(C(=O)O)C(O)C(=O)O; X1 = O=C(C1C(O)CCN1[*:1])[*:2]

Columns and labels:
Format in all cases: cell-based
[1] = test system: Staphylococcus aureus Smith; test: MIC, serial two-fold dilution method (aerobic); settings: Staphylococcus aureus Smith, Mueller-Hinton agar, inoculum 10^4; for MIC: read-out: minimum inhibitory concentration (MIC)
[2] = test system: Fusobacterium varium ATCC 8501; test: MIC, serial two-fold dilution method (anaerobic); settings: Fusobacterium varium ATCC 8501, GAM agar medium, inoculum 10^7-10^8; for MIC: ATCC8501, read-out: minimum inhibitory concentration (MIC)
[3] = test system: Bacteroides fragilis A22053; test: MIC, serial two-fold dilution method (anaerobic); settings: Bacteroides fragilis A22053, GAM agar medium, inoculum 10^7-10^8; for MIC: read-out: minimum inhibitory concentration (MIC)
[4] = test system: Peptostreptococcus intermedius A21881; test: MIC, serial two-fold dilution method (anaerobic); settings: Peptostreptococcus intermedius A21881, GAM agar medium, inoculum 10^7-10^8; for MIC: read-out: minimum inhibitory concentration (MIC)
[5] = test system: Staphylococcus aureus A20610; test: MIC, serial two-fold dilution method (aerobic); settings: Staphylococcus aureus A20610, Mueller-Hinton agar, inoculum 10^4; for MIC: read-out: minimum inhibitory concentration (MIC)
[6] = test system: Bacteroides fragilis CUH-24; test: MIC, serial two-fold dilution method (anaerobic); settings: Bacteroides fragilis CUH-24, GAM agar medium, inoculum 10^7-10^8; for MIC: CUH24, read-out: minimum inhibitory concentration (MIC)
[7] = test system: Staphylococcus aureus 209P; test: MIC, serial two-fold dilution method (aerobic); settings: Staphylococcus aureus 209P, Mueller-Hinton agar, inoculum 10^4; for MIC: read-out: minimum inhibitory concentration (MIC)
[8] = test system: Clostridium difficile A21972; test: MIC, serial two-fold dilution method (anaerobic); settings: Clostridium difficile A21972, GAM agar medium, inoculum 10^7-10^8; for MIC: Clostridioides difficile, read-out: minimum inhibitory concentration (MIC)
Description: (§1) The minimum inhibitory concentration (MIC) of Bu-2517 was determined for a variety of aerobic and anaerobic bacteria by the serial two-fold dilution method using a multi-inoculating apparatus. Mueller-Hinton agar was generally used for aerobic bacteria, GC medium (Eiken) for fastidious aerobic organisms such as streptococci, Neisseria and Haemophilus species, and GAM agar medium (Nissui) for anaerobic bacteria. The inoculum size was adjusted to 10^6 CFU/ml for streptococci, Neisseria and Haemophilus species, 10^4 for other aerobic bacteria and 10^7 -10^8 for all anaerobic organisms. Amphomycin, ampicillin, chloramphenicol, clindamycin, erthromycin, kanamycin and vancomycin were used as reference antibiotics.

[9] = test system: Clostridium difficile A21675; test: MIC, serial two-fold dilution method (anaerobic); settings: Clostridium difficile A21675, GAM agar medium, inoculum 10^7-10^8; for MIC: Clostridioides difficile, read-out: minimum inhibitory concentration (MIC)
Description: as §1

[10] = test system: Clostridium septicum A21869; test: MIC, serial two-fold dilution method (anaerobic); settings: Clostridium septicum A21869, GAM agar medium, inoculum 10^7-10^8; for MIC: read-out: minimum inhibitory concentration (MIC)
Description: as §1

[11] = test system: Clostridium chauvoei A9561; test: MIC, serial two-fold dilution method (anaerobic); settings: Clostridium chauvoei A9561, GAM agar medium, inoculum 10^7-10^8; for MIC: read-out: minimum inhibitory concentration (MIC)
Description: as §1

[12] = test system: Bacteroides fragilis CUH-9; test: MIC, serial two-fold dilution method (anaerobic); settings: Bacteroides fragilis CUH-9, GAM agar medium, inoculum 10^7-10^8; for MIC: CUH9, read-out: minimum inhibitory concentration (MIC)
Escherichia coli NIHJ = test: MIC, serial two-fold dilution method (aerobic); settings: Escherichia coli NIHJ, Mueller-Hinton agar, inoculum 10^4; for MIC: read-out: minimum inhibitory concentration (MIC)
[13] = test system: Propionibacterium acnes A21953; test: MIC, serial two-fold dilution method (anaerobic); settings: Propionibacterium acnes A21953, GAM agar medium, inoculum 10^7-10^8; for MIC: Cutibacterium acnes, read-out: minimum inhibitory concentration (MIC)
[14] = test system: Staphylococcus aureus A9856; test: MIC, serial two-fold dilution method (aerobic); settings: Staphylococcus aureus A9856, Mueller-Hinton agar, inoculum 10^4; for MIC: read-out: minimum inhibitory concentration (MIC)
[15] = test system: Bacteroides fragilis A21900; test: MIC, serial two-fold dilution method (anaerobic); settings: Bacteroides fragilis A21900, GAM agar medium, inoculum 10^7-10^8; for MIC: read-out: minimum inhibitory concentration (MIC)
[16] = test system: Staphylococcus aureus A22421; test: MIC, serial two-fold dilution method (aerobic); settings: Staphylococcus aureus A22421, Mueller-Hinton agar, inoculum 10^4; for MIC: read-out: minimum inhibitory concentration (MIC)
[17] = test system: Clostridium ramosum A21970; test: MIC, serial two-fold dilution method (anaerobic); settings: Clostridium ramosum A21970, GAM agar medium, inoculum 10^7-10^8; for MIC: Thomasclavelia ramosa, read-out: minimum inhibitory concentration (MIC)
[18] = test system: Veillonella parvula A20010; test: MIC, serial two-fold dilution method (anaerobic); settings: Veillonella parvula A20010, GAM agar medium, inoculum 10^7-10^8; for MIC: read-out: minimum inhibitory concentration (MIC)
[19] = test system: Peptostreptococcus anaerobius A21905; test: MIC, serial two-fold dilution method (anaerobic); settings: Peptostreptococcus anaerobius A21905, GAM agar medium, inoculum 10^7-10^8; for MIC: read-out: minimum inhibitory concentration (MIC)
[20] = test system: Veillonella alcalescens A21914-1; test: MIC, serial two-fold dilution method (anaerobic); settings: Veillonella alcalescens A21914-1, GAM agar medium, inoculum 10^7-10^8; for MIC: Veillonella parvula, A219141, read-out: minimum inhibitory concentration (MIC)
[21] = test system: Bacteroides fragilis A20926; test: MIC, serial two-fold dilution method (anaerobic); settings: Bacteroides fragilis A20926, GAM agar medium, inoculum 10^7-10^8; for MIC: read-out: minimum inhibitory concentration (MIC)
[22] = test system: Bacillus anthracis IID-115; test: microbe, parasite or virus in culture; settings: for MIC: Bacillus anthracis, IID115, read-out: minimum inhibitory concentration (MIC)
[23] = test system: Propionibacterium acnes A22650; test: MIC, serial two-fold dilution method (anaerobic); settings: Propionibacterium acnes A22650, GAM agar medium, inoculum 10^7-10^8; for MIC: Cutibacterium acnes, read-out: minimum inhibitory concentration (MIC)
[24] = test system: Fusobacterium nucleatum A21906; test: MIC, serial two-fold dilution method (anaerobic); settings: Fusobacterium nucleatum A21906, GAM agar medium, inoculum 10^7-10^8; for MIC: read-out: minimum inhibitory concentration (MIC)
[25] = test system: Fusobacterium necrophorum A20013; test: MIC, serial two-fold dilution method (anaerobic); settings: Fusobacterium necrophorum A20013, GAM agar medium, inoculum 10^7-10^8; for MIC: read-out: minimum inhibitory concentration (MIC)

CC1(C)S[C@@H]2[C@H](NC(=O)[C@H](N)c3ccccc3)C(=O)N2[C@H]1C(=O)O [Ampicillin]
MIC [1]: 0.05 µg/mL (≈ 0.143 µM) | MIC [2]: 12.5 µg/mL (≈ 35.8 µM) | MIC [3]: 6.3 µg/mL (≈ 18 µM) | MIC [4]: 0.1 µg/mL (≈ 0.286 µM) | MIC [5]: 12.5 µg/mL (≈ 35.8 µM) | MIC [6]: 50 µg/mL (≈ 143 µM) | MIC [7]: 0.013 µg/mL (≈ 0.0372 µM) | MIC [8]: 0.2 µg/mL (≈ 0.572 µM) | MIC [9]: 1.6 µg/mL (≈ 4.58 µM) | MIC [10]: 0.8 µg/mL (≈ 2.29 µM) | MIC [11]: 0.4 µg/mL (≈ 1.14 µM) | MIC [12]: 3.1 µg/mL (≈ 8.87 µM) | MIC (Escherichia coli NIHJ): 0.4 µg/mL (≈ 1.14 µM) | MIC [13]: < 0.0063 µg/mL | MIC [14]: 0.05 µg/mL (≈ 0.143 µM) | MIC [15]: 0.2 µg/mL (≈ 0.572 µM) | MIC [16]: 12.5 µg/mL (≈ 35.8 µM) | MIC [17]: 0.8 µg/mL (≈ 2.29 µM) | MIC [18]: 0.4 µg/mL (≈ 1.14 µM) | MIC [19]: 0.1 µg/mL (≈ 0.286 µM) | MIC [20]: 0.025 µg/mL (≈ 0.0715 µM) | MIC [21]: 0.2 µg/mL (≈ 0.572 µM) | MIC [22]: 0.013 µg/mL (≈ 0.0372 µM) | MIC [23]: 0.05 µg/mL (≈ 0.143 µM) | MIC [24]: 12.5 µg/mL (≈ 35.8 µM) | MIC [25]: > 100 µg/mL

CCCCCCCCCCCC1CC(=O)N2CCCC2C(=O)NC(CO)C(=O)N2CCCC2C(=O)NC(CCCNC(=N)N)C(=O)NC(C(O)C(=O)O)C(=O)NC(CO)C(=O)N2CCC(O)C2C(=O)NC(C(O)C(=O)O)C(=O)O1 (stereo not drawn) [Bu-2517] (PSPR[ξAsp(3ξ-OH)]S[X1][ξAsp(3ξ-OH)]; linker N-C via X2; configuration not given here)
minimum inhibitory concentration (MIC) [1]: 1.6 µg/mL (≈ 1.42 µM) | minimum inhibitory concentration (MIC) [2]: 50 µg/mL (≈ 44.4 µM) | minimum inhibitory concentration (MIC) [3]: > 100 µg/mL | minimum inhibitory concentration (MIC) [4]: 3.1 µg/mL (≈ 2.75 µM) | minimum inhibitory concentration (MIC) [5]: 1.6 µg/mL (≈ 1.42 µM) | minimum inhibitory concentration (MIC) [6]: > 100 µg/mL | minimum inhibitory concentration (MIC) [7]: 1.6 µg/mL (≈ 1.42 µM) | minimum inhibitory concentration (MIC) [8]: 1.6 µg/mL (≈ 1.42 µM) | minimum inhibitory concentration (MIC) [9]: 1.6 µg/mL (≈ 1.42 µM) | minimum inhibitory concentration (MIC) [10]: 1.6 µg/mL (≈ 1.42 µM) | minimum inhibitory concentration (MIC) [11]: 3.1 µg/mL (≈ 2.75 µM) | minimum inhibitory concentration (MIC) [12]: 100 µg/mL (≈ 88.8 µM) | minimum inhibitory concentration (MIC) (Escherichia coli NIHJ): > 100 µg/mL | minimum inhibitory concentration (MIC) [13]: 6.3 µg/mL (≈ 5.59 µM) | minimum inhibitory concentration (MIC) [14]: 0.8 µg/mL (≈ 0.71 µM) | minimum inhibitory concentration (MIC) [15]: 6.3 µg/mL (≈ 5.59 µM) | minimum inhibitory concentration (MIC) [16]: 0.8 µg/mL (≈ 0.71 µM) | minimum inhibitory concentration (MIC) [17]: 1.6 µg/mL (≈ 1.42 µM) | minimum inhibitory concentration (MIC) [18]: 1.6 µg/mL (≈ 1.42 µM) | minimum inhibitory concentration (MIC) [19]: 0.8 µg/mL (≈ 0.71 µM) | minimum inhibitory concentration (MIC) [20]: 1.6 µg/mL (≈ 1.42 µM) | minimum inhibitory concentration (MIC) [21]: 25 µg/mL (≈ 22.2 µM) | minimum inhibitory concentration (MIC) ([22]; Bacillus anthracis IID-115, Mueller-Hinton agar, inoculum 10^4): 0.8 µg/mL (≈ 0.71 µM) | minimum inhibitory concentration (MIC) [23]: 0.8 µg/mL (≈ 0.71 µM) | minimum inhibitory concentration (MIC) [24]: 12.5 µg/mL (≈ 11.1 µM) | minimum inhibitory concentration (MIC) [25]: > 100 µg/mL

O=C(N[C@H](CO)[C@H](O)c1ccc([N+](=O)[O-])cc1)C(Cl)Cl [Chloramphenicol]
MIC [1]: 3.1 µg/mL (≈ 9.59 µM) | MIC [2]: 6.3 µg/mL (≈ 19.5 µM) | MIC [3]: 3.1 µg/mL (≈ 9.59 µM) | MIC [4]: 3.1 µg/mL (≈ 9.59 µM) | MIC [5]: 50 µg/mL (≈ 155 µM) | MIC [6]: 1.6 µg/mL (≈ 4.95 µM) | MIC [7]: 3.1 µg/mL (≈ 9.59 µM) | MIC [8]: 3.1 µg/mL (≈ 9.59 µM) | MIC [9]: 3.1 µg/mL (≈ 9.59 µM) | MIC [10]: 6.3 µg/mL (≈ 19.5 µM) | MIC [11]: 6.3 µg/mL (≈ 19.5 µM) | MIC [12]: 1.6 µg/mL (≈ 4.95 µM) | MIC (Escherichia coli NIHJ): 0.8 µg/mL (≈ 2.48 µM) | MIC [13]: 1.6 µg/mL (≈ 4.95 µM) | MIC [14]: 3.1 µg/mL (≈ 9.59 µM) | MIC [15]: 3.1 µg/mL (≈ 9.59 µM) | MIC [16]: 6.3 µg/mL (≈ 19.5 µM) | MIC [17]: 6.3 µg/mL (≈ 19.5 µM) | MIC [18]: 3.1 µg/mL (≈ 9.59 µM) | MIC [19]: 1.6 µg/mL (≈ 4.95 µM) | MIC [20]: 1.6 µg/mL (≈ 4.95 µM) | MIC [21]: 3.1 µg/mL (≈ 9.59 µM) | MIC [22]: 3.1 µg/mL (≈ 9.59 µM) | MIC [23]: 0.4 µg/mL (≈ 1.24 µM) | MIC [24]: 6.3 µg/mL (≈ 19.5 µM) | MIC [25]: 6.3 µg/mL (≈ 19.5 µM)
